The values that follow come from US8293768B2, “Organic compounds” (Novartis AG, priority 2006, dated 2012).

Regarding `Cc1nc(N2CCN(Cc3ccc(OC(F)(F)F)cc3)C2=O)sc1C(=O)NCCC1CC1` [Example 8.3, N-(2-cyclopropylethyl)-4-methyl-2-(2-oxo-3-(4-(trifluoromethoxy)benzyl)imidazolidin-1-yl)thiazole-5-carboxamide], the melting point was in the range of 195 to 196 °C. Take `Cc1cc(-n2cnn(Cc3ccc(F)cc3)c2=O)sc1C(=O)NCc1cccnc1` [Example 31, 5-(1-(4-fluorobenzyl)-5-oxo-1H-1,2,4-triazol-4(5H)-yl)-3-methyl-N-(pyridin-3-ylmethyl)thiophene-2-carboxamide]: the melting point lay within 180 to 182 °C. `Cc1nc(N2CCN(CCCc3ccccc3)C2=O)sc1C(=O)O` [Example 6.12, 4-methyl-2-(2-oxo-3-(3-phenylpropyl)imidazolidin-1-yl)thiazole-5-carboxylic acid] displayed a melting point of 218 to 221 °C. The result for `Cc1nc(N2CCN(CCc3c[nH]c4ccccc34)C2=O)sc1C(=O)NCc1ccccc1` [Example 23.7, 2-(3-(2-(1H-indol-3-yl)ethyl)-2-oxoimidazolidin-1-yl)-N-benzyl-4-methylthiazole-5-carboxamide] reads 215 to 217 °C; that for `Cc1nc(-n2cnn(Cc3ccc(F)cc3)c2=O)sc1C(=O)NCc1cccnc1` [Example 21.3, 2-(1-(4-fluorobenzyl)-5-oxo-1H-1,2,4-triazol-4(5H)-yl)-4-methyl-N-(pyridin-3-ylmethyl)thiazole-5-carboxamide], 178 to 179 °C. On to `Cc1nc(N2CCN(Cc3ccc(C(F)(F)F)cc3)C2=O)sc1C(=O)NCc1cccnc1` [Example 9.12, 4-methyl-2-(2-oxo-3-(4-(trifluoromethyl)benzyl)imidazolidin-1-yl)-N-(pyridin-3-ylmethyl)thiazole-5-carboxamide], for which the melting point was in the range of 107 to 108 °C. The result for `CCCN1CCN(c2nc(C)c(C(=O)NCc3cccnc3)s2)C1=O` [Example 9.40, 4-methyl-2-(2-oxo-3-propylimidazolidin-1-yl)-N-(pyridin-3-ylmethyl)thiazole-5-carboxamide] reads 109 to 111 °C; that for `Cc1nc(-n2cnn(CCO)c2=O)sc1C(=O)NCc1cccnc1` [Example 19.9, 2-(1-(2-hydroxyethyl)-5-oxo-1H-1,2,4-triazol-4(5H)-yl)-4-methyl-N-(pyridin-3-ylmethyl)thiazole-5-carboxamide], 201 to 202 °C. The compound `Cc1nc(N2CCN(Cc3ccc(OC(F)(F)F)cc3)C2=O)sc1C(=O)NCC1CC1` [Example 8.12, N-(cyclopropylmethyl)-4-methyl-2-(2-oxo-3-(4-(trifluoromethoxy)benzyl)imidazolidin-1-yl)thiazole-5-carboxamide] had a melting point of 184 to 186 °C.

On to `Cc1nc(-n2cnn(Cc3ccc(OC(F)F)cc3)c2=O)sc1C(=O)NCc1cccnc1` [Example 21.1, 2-(1-(4-(difluoromethoxy)benzyl)-5-oxo-1H-1,2,4-triazol-4(5H)-yl)-4-methyl-N-(pyridin-3-ylmethyl)thiazole-5-carboxamide], for which the melting point is 151 to 152 °C. The result for `CNC(=O)c1ccc(CN2CCN(c3nc(C)c(C(C)=O)s3)C2=O)cc1` [Example 8.6, 4-((3-(5-acetyl-4-methylthiazol-2-yl)-2-oxoimidazolidin-1-yl)methyl)-N-methylbenzamide] reads 173 to 175 °C; that for `Cc1nc(N2CCN(Cc3ccc(C(F)(F)F)cc3)C2=O)sc1-c1cc[nH]n1` [Example 38, 1-(4-methyl-5-(1H-pyrazol-3-yl)thiazol-2-yl)-3-(4-(trifluoromethyl)-benzyl)imidazolidin-2-one], 212 to 213 °C; that for `CCNC(=O)c1sc(N2CCN(Cc3ccc(OC(F)(F)F)cc3)C2=O)nc1C` [Example 8.2, N-ethyl-4-methyl-2-(2-oxo-3-(4-(trifluoromethoxy)benzyl)imidazolidin-1-yl)thiazole-5-carboxamide], 218 to 219 °C. Regarding `Cc1cc(N2CCN(CCOc3ccccc3)C2=O)sc1C(=O)NCc1cccnc1` [Example 55, 3-methyl-5-(2-oxo-3-(2-phenoxyethyl)imidazolidin-1-yl)-N-(pyridin-3-ylmethyl)thiophene-2-carboxamide], the melting point lay within 78 to 80 °C. For `Cc1nc(N2CCN(Cc3ccc(Cl)cc3)C2=O)sc1C(=O)NCc1cccnc1` [Example 9.28, 2-(3-(4-chlorobenzyl)-2-oxoimidazolidin-1-yl)-4-methyl-N-(pyridin-3-ylmethyl)thiazole-5-carboxamide], the melting point lay in the range of 178 to 179 °C.

As for `Cc1nc(N2CCN(C(=O)c3ccc(F)cc3)C2=O)sc1C(=O)NCc1ccccc1` [Example 34, N-benzyl-2-(3-(4-fluorobenzoyl)-2-oxoimidazolidin-1-yl)-4-methylthiazole-5-carboxamide], the melting point lay within 130 to 132 °C. The value for `Cc1nc(N2CCN(Cc3cccnc3)C2=O)sc1C(=O)NCc1ccccc1` [Example 32.9, N-benzyl-4-methyl-2-(2-oxo-3-(pyridin-3-ylmethyl)imidazolidin-1-yl)thiazole-5-carboxamide] was 110 to 113 °C; that for `Cc1nc(N2CCN(Cc3ccc(F)cc3)C2=O)sc1C(=O)NCc1ccccc1` [Example 9.21, N-benzyl-2-(3-(4-fluorobenzyl)-2-oxoimidazolidin-1-yl)-4-methylthiazole-5-carboxamide] was 192 to 193 °C; that for `COC(=O)c1cccc(CN2CCN(c3nc(C)c(C(C)=O)s3)C2=O)c1` [Example 5.17, methyl 3-((3-(5-acetyl-4-methylthiazol-2-yl)-2-oxoimidazolidin-1-yl)methyl)benzoate] was 122 to 124 °C. The value for `Cc1nc(N2CCN(CCC3CC3)C2=O)sc1C(=O)NCc1ccc(F)cc1` [Example 9.18, 2-(3-(2-cyclopropylethyl)-2-oxoimidazolidin-1-yl)-N-(4-fluorobenzyl)-4-methylthiazole-5-carboxamide] was 122 to 123 °C; that for `Cc1nc(N2C(=O)N(Cc3ccc(F)cc3)CC2O)sc1C(=O)NCc1ccccc1` (stereo not shown) [Example 16, N-benzyl-2-(3-(4-fluorobenzyl)-5-hydroxy-2-oxoimidazolidin-1-yl)-4-methylthiazole-5-carboxamide] was 133 to 134 °C; that for `Cc1nc(N2CCN(Cc3ccccc3)C2=O)sc1C(=O)NCc1ccccc1` [Example 8, N-benzyl-2-(3-benzyl-2-oxoimidazolidin-1-yl)-4-methylthiazole-5-carboxamide] was 169 to 171 °C. The value for `Cc1nc(N2CCN(Cc3csc4ccc(Cl)cc34)C2=O)sc1C(=O)NCc1cccnc1` [Example 32, 2-(3-((5-chlorobenzo[b]thiophen-3-yl)methyl)-2-oxoimidazolidin-1-yl)-4-methyl-N-(pyridin-3-ylmethyl)thiazole-5-carboxamide] was 185 to 187 °C. In turn, `Cc1cnc(CNC(=O)c2sc(N3CCN(Cc4ccc(F)cc4)C3=O)nc2C)cn1` [Example 32.10, 2-(3-(4-fluorobenzyl)-2-oxoimidazolidin-1-yl)-4-methyl-N-((5-methylpyrazin-2-yl)methyl)thiazole-5-carboxamide] returned a melting point of 191 to 193 °C.

On to `Cc1nc(N2CCN(Cc3cccc(C(F)(F)F)c3)C2=O)sc1C(=O)NCc1cccnc1` [Example 9.43, 4-methyl-2-(2-oxo-3-(3-(trifluoromethyl)benzyl)imidazolidin-1-yl)-N-(pyridin-3-ylmethyl)thiazole-5-carboxamide], for which the melting point fell in the range of 175 to 176 °C. The value for `Cc1nc(N2CCN(Cc3ccc(F)cc3)C2=O)sc1C(=O)NCc1cnn(C)c1` [Example 32.13, 2-(3-(4-fluorobenzyl)-2-oxoimidazolidin-1-yl)-4-methyl-N-((1-methyl-1H-pyrazol-4-yl)methyl)thiazole-5-carboxamide] was 173 to 175 °C; that for `Cc1nc(N2CCN(Cc3ccccc3C(F)(F)F)C2=O)sc1C(=O)NCc1ccccc1` [Example 23.1, N-benzyl-4-methyl-2-(2-oxo-3-(2-(trifluoromethyl)benzyl)imidazolidin-1-yl)thiazole-5-carboxamide] was 138 to 140 °C. Regarding `Cc1cc(-c2sc(N3CCN(Cc4ccc(C(=O)N5CCCCC5)cc4)C3=O)nc2C)n[nH]1` [Example 40, 1-(4-methyl-5-(3-methyl-1H-pyrazol-5-yl)thiazol-2-yl)-3-(4-(piperidine-1-carbonyl)benzyl)imidazolidin-2-one], the melting point is 182 to 183 °C.

`CNC(=O)c1ccc(CN2CCN(c3nc(C)c(-c4cc(C)[nH]n4)s3)C2=O)cc1` [Example 40.2, N-methyl-4-((3-(4-methyl-5-(3-methyl-1H-pyrazol-5-yl)thiazol-2-yl)-2-oxoimidazolidin-1-yl)methyl)benzamide] came in with a melting point of 236 to 238 °C. The value for `Cc1nc(N2CCN(CCC3CC3)C2=O)sc1C(=O)NCc1ccccc1` [Example 9.17, N-benzyl-2-(3-(2-cyclopropylethyl)-2-oxoimidazolidin-1-yl)-4-methylthiazole-5-carboxamide] was 137 to 138 °C; that for `Cc1cc(N2CCN(Cc3ccc(N)cc3)C2=O)sc1C(=O)NCc1cccnc1` [Example 58, 5-(3-(4-aminobenzyl)-2-oxoimidazolidin-1-yl)-3-methyl-N-(pyridin-3-ylmethyl)thiophene-2-carboxamide] was 118 to 120 °C. For `Cc1csc(NC(=O)c2ccc(CN3CCN(c4nc(C)cs4)C3=O)cc2)n1` [Example 8.10, N-(4-methylthiazol-2-yl)-4-((3-(4-methylthiazol-2-yl)-2-oxoimidazolidin-1-yl)methyl)benzamide], the melting point lay within 197 to 198 °C. The result for `Cc1nc(N2CCN(Cc3ccc(F)cc3)C2=O)sc1C(=O)NCc1cccnn1` [Example 32.15, 2-(3-(4-fluorobenzyl)-2-oxoimidazolidin-1-yl)-4-methyl-N-(pyridazin-3-ylmethyl)thiazole-5-carboxamide] reads 222 to 225 °C; that for `Cc1nc(-n2cnn(Cc3ccc(C(F)(F)F)cc3)c2=O)sc1C(=O)NCc1cccnc1` [Example 21, 4-methyl-2-(5-oxo-1-(4-(trifluoromethyl)benzyl)-1H-1,2,4-triazol-4(5H)-yl)-N-(pyridin-3-ylmethyl)thiazole-5-carboxamide], 156 to 158 °C.

Usually melting point stands for the temperature of the solid-liquid transition.
